Patent US11505533B2, “Metabolically stable N-acylaminooxadiazoles useful as antibacterial agents” (MICROBIOTIX, INC., priority 2017, dated 2022)
≈ marks a conversion by molar mass, not a printed value.

tested on: E. coli TolC(−); experiment: TolC(−) MIC (NB); format: cell-based; conditions: Escherichia coli, read-out: TolC(−) MIC (μM)(NB)

Row | Structure (SMILES) | MIC [µM]
1 | CC(=O)N1CCN(C(=O)Nc2nnc(-c3ccc(F)cc3)o2)CC1 [compound 4198] | ≥ 100
2 | O=C(Nc1nnc(-c2ccc(F)cc2)o1)N1CCN2CCCCC2C1 (centres unmarked) [compound 4199] | ≥ 100
3 | O=C(Nc1nnc(-c2ccc(F)cc2)o1)N1CCCC2CCCCC21 (centres unmarked) [compound 4200] | 50 (≈ 17.2 µg/mL)
4 | O=C(Nc1nnc(-c2ccc(F)cc2)o1)N1CCN(C(=O)c2ccco2)CC1 [compound 4201] | 28.1 (≈ 10.8 µg/mL)
5 | O=C(Nc1nnc(-c2ccc(F)cc2)o1)c1ccc(Oc2ccccc2)cn1 [compound 4258] | 35.4 (≈ 13.3 µg/mL)
6 | CC(C)(C)OC(=O)N1CCC(Oc2ccc(C(=O)Nc3nnc(-c4ccc(F)cc4)o3)cc2)CC1 [compound 4289] | 3.51 (≈ 1.69 µg/mL)
7 | Cc1cncc(Oc2ccc(C(=O)Nc3nnc(-c4ccc(F)cc4)o3)cc2)n1 [compound 4290] | 11.1 (≈ 4.36 µg/mL)
8 | O=C(Nc1nnc(-c2ccc(F)cc2)o1)c1cnc(Oc2ccccc2)nc1 [compound 4314] | 6.25 (≈ 2.36 µg/mL)
9 | COc1cc2c(cc1OC)CN(C(=O)Nc1nnc(-c3ccc(F)cc3)o1)CC2 [compound 4333] | 12.5 (≈ 4.98 µg/mL)
10 | O=C(Nc1nnc(-c2ccc(F)cc2)o1)N1CCCC1 [compound 4346] | 100 (≈ 27.6 µg/mL)
11 | CN1CCCN(C(=O)Nc2nnc(-c3ccc(F)cc3)o2)CC1 [compound 4349] | ≥ 100
12 | O=C1CN(C(=O)Nc2nnc(-c3ccc(F)cc3)o2)CCN1 [compound 4350] | ≥ 100
13 | CN1CCN(C(=O)Nc2nnc(-c3ccc(F)cc3)o2)CC1=O [compound 4351] | ≥ 100
14 | O=C(Nc1nnc(-c2ccc(F)cc2)o1)N1CC2CC(C1)O2 [compound 4380] | ≥ 100
15 | O=C(Nc1nnc(-c2ccc(F)cc2)o1)N1CC2CCC(C1)O2 [compound 4381] | 100 (≈ 31.8 µg/mL)
16 | COCCN1[C@H](C)CN(C(=O)Nc2nnc(-c3ccc(F)cc3)o2)C[C@@H]1C [compound 4406] | 50 (≈ 18.9 µg/mL)
17 | Cc1nc2c(s1)CN(C(=O)Nc1nnc(-c3ccc(F)cc3)o1)C2 [compound 4464] | ≥ 100
18 | Cc1nnc(NC(=O)c2ccc(Oc3ccccc3)nc2)o1 [compound 4468] | ≥ 100
19 | O=C(Nc1nnc(C2CCC2)o1)c1ccc(Oc2ccccc2)nc1 [compound 4469] | 12.5 (≈ 4.2 µg/mL)
20 | O=C(Nc1nnc(-c2ccc(F)cc2)o1)N1Cc2ncsc2C1 [compound 4497] | ≥ 100
21 | CC1CCN(C(=O)Nc2nnc(-c3ccc(F)cc3)o2)CC1 [compound 4684] | 15.8 (≈ 4.79 µg/mL)
22 | CC1(C)CCN(C(=O)Nc2nnc(-c3ccc(F)cc3)o2)CC1 [compound 4685] | 12.5 (≈ 3.98 µg/mL)

Row | Structure (SMILES) | MIC [µM]
23 | O=C(Nc1nnc(-c2ccc(F)cc2)o1)N1CCC(F)(F)CC1 [compound 4686] | 12.5 (≈ 4.08 µg/mL)
24 | O=C(Nc1nnc(-c2ccc(F)cc2)o1)N1CCOCC1 [compound 4697] | 100 (≈ 29.2 µg/mL)
25 | O=C(Nc1nnc(-c2ccc(F)cc2)o1)N1CCC2CCCCC2C1 (centres unmarked) [compound 4698] | 8.84 (≈ 3.04 µg/mL)
26 | O=C(Nc1nnc(-c2ccc(F)cc2)o1)N1CCCCC1 [compound 4699] | 25 (≈ 7.26 µg/mL)
27 | O=C(Nc1nnc(-c2ccc(F)cc2)o1)N1CCCCCC1 [compound 4700] | 15.8 (≈ 4.79 µg/mL)
28 | COC(=O)C1CCN(C(=O)Nc2nnc(-c3ccc(F)cc3)o2)CC1 [compound 4701] | 50 (≈ 17.4 µg/mL)
29 | O=C(Nc1nnc(-c2ccc(F)cc2)o1)N1CCC(N2CCCCC2)CC1 [compound 4702] | > 100
30 | O=C(Nc1nnc(-c2ccc(F)cc2)o1)N1CCC(O)CC1 [compound 4734] | 100 (≈ 30.6 µg/mL)
31 | O=C(Nc1nnc(-c2ccc(F)cc2)o1)N1CCC(C(F)(F)F)C1 (centres unmarked) [compound 4735] | 22.3 (≈ 7.67 µg/mL)
32 | CC1=C(C)CN(C(=O)Nc2nnc(-c3ccc(F)cc3)o2)CC1 [compound 4738] | 7 (≈ 2.21 µg/mL)
33 | O=C(Nc1nnc(-c2ccc(F)cc2)o1)N1CCC2(CC1)COC2 [compound 4739] | 100 (≈ 33.2 µg/mL)
34 | O=C(Nc1nnc(-c2ccc(F)cc2)o1)N1CCC(C2COC2)CC1 [compound 4740] | 100 (≈ 34.6 µg/mL)
35 | O=C(Nc1nnc(-c2ccc(F)cc2)o1)N1CCC(Nc2ccccc2)CC1 [compound 4741] | 11.1 (≈ 4.23 µg/mL)
36 | CC1CCCN(C(=O)Nc2nnc(-c3ccc(F)cc3)o2)C1 (centres unmarked) [compound 4767] | 11.1 (≈ 3.38 µg/mL)
37 | CC1CC(C)CN(C(=O)Nc2nnc(-c3ccc(F)cc3)o2)C1 (centres unmarked) [compound 4768] | 6.25 (≈ 1.99 µg/mL)
38 | O=C(Nc1nnc(C2COc3ccccc3O2)o1)c1ccc(Oc2ccccc2)nc1 (centres unmarked) [compound 4770] | 4.42 (≈ 1.84 µg/mL)
39 | O=C(Nc1nnc(-c2ccc(F)cc2)o1)N1CCCC(F)(F)CC1 [compound 4776] | 12.5 (≈ 4.25 µg/mL)
40 | O=C(Nc1nnc(-c2ccc(F)cc2)o1)N1CCCc2ccccc2C1 [compound 4777] | 17.7 (≈ 6.23 µg/mL)
41 | COC(=O)c1ccc(OC2CCN(C(=O)Nc3nnc(-c4ccc(F)cc4)o3)CC2)cc1 [compound 4778] | 19.8 (≈ 8.74 µg/mL)
42 | COC(=O)c1ccc(CC2CCN(C(=O)Nc3nnc(-c4ccc(F)cc4)o3)CC2)cc1 [compound 4779] | 12.5 (≈ 5.48 µg/mL)
43 | O=C(Nc1nnc(Cc2ccc(F)cc2)o1)c1ccc(Oc2ccccc2)nc1 [compound 4802] | 6.25 (≈ 2.44 µg/mL)
44 | CC1=CCN(C(=O)Nc2nnc(C3CCCCC3)o2)CC1 [compound 4805] | 25 (≈ 7.26 µg/mL)

Row | Structure (SMILES) | MIC [µM]
45 | O=C(Nc1nnc(C2CCCCC2)o1)N1CC=C(C(F)(F)F)CC1 [compound 4806] | 12.5 (≈ 4.3 µg/mL)
46 | COCC1=CCN(C(=O)Nc2nnc(-c3ccc(F)cc3)o2)CC1 [compound 4843] | 25 (≈ 8.31 µg/mL)
47 | CC1(C)CCCN(C(=O)Nc2nnc(-c3ccc(F)cc3)o2)CC1 [compound 4922] | 12.5 (≈ 4.15 µg/mL)
48 | O=C(Nc1nnc(C2CCCCC2)o1)c1ccc(OC2CCCCC2)nc1 [compound 4925] | 1.56 (≈ 0.578 µg/mL)
49 | O=C(Nc1nnc(C2COc3ccccc3O2)o1)c1ccc(OC2CCCCC2)nc1 (centres unmarked) [compound 4926] | 1.56 (≈ 0.659 µg/mL)
50 | O=C(Nc1nnc(-c2ccc(F)cc2)o1)N1CCC(F)(F)C1 [compound 4930] | 19.8 (≈ 6.18 µg/mL)
51 | O=C(Nc1nnc(-c2ccc(F)cc2)o1)N1CCC2(C1)CC2(F)F (centres unmarked) [compound 4931] | 28.1 (≈ 9.49 µg/mL)
52 | O=C(Nc1nnc(-c2ccc(F)cc2)o1)N1CC(C(F)F)C2(CC2)C1 (centres unmarked) [compound 4932] | 17.7 (≈ 6.23 µg/mL)
53 | CCC1CCN(C(=O)Nc2nnc(-c3ccc(F)cc3)o2)CC1 [compound 4933] | 6.25 (≈ 1.99 µg/mL)
54 | CCCC1CCN(C(=O)Nc2nnc(-c3ccc(F)cc3)o2)CC1 [compound 4934] | 6.25 (≈ 2.08 µg/mL)
55 | O=C(Nc1nnc(-c2ccc(F)cc2)o1)N1CCC=CCC1 [compound 4935] | 12.5 (≈ 3.78 µg/mL)
56 | O=C(Nc1nnc(-c2ccc(F)cc2)o1)N1CCc2ccccc2CC1 [compound 4936] | 6.25 (≈ 2.2 µg/mL)
57 | CC(C)(C)C1CCCN(C(=O)Nc2nnc(-c3ccc(F)cc3)o2)CC1 (centres unmarked) [compound 4937] | 11.1 (≈ 4 µg/mL)
58 | CC(C)(C)C1CCN(C(=O)Nc2nnc(-c3ccc(F)cc3)o2)CC1 [compound 4938] | 4.96 (≈ 1.72 µg/mL)
59 | O=C(Nc1nnc(-c2ccc(F)cc2)o1)N1CCC2(CCCC2)CC1 [compound 4939] | 6.25 (≈ 2.15 µg/mL)
60 | O=C(Nc1nnc(-c2ccc(F)cc2)o1)N1CCc2sccc2C1 [compound 4940] | 3.13 (≈ 1.08 µg/mL)
61 | CCOC1CCN(C(=O)Nc2nnc(-c3ccc(F)cc3)o2)CC1 [compound 4993] | 44.5 (≈ 14.9 µg/mL)
62 | CC(C)OC1CCN(C(=O)Nc2nnc(-c3ccc(F)cc3)o2)CC1 [compound 4994] | 44.5 (≈ 15.5 µg/mL)
63 | CC(C)(C)OC1CCN(C(=O)Nc2nnc(-c3ccc(F)cc3)o2)CC1 [compound 4995] | 25 (≈ 9.06 µg/mL)
64 | O=C(Nc1nnc(-c2ccc3c(c2)CCC3)o1)N1CCC(Cl)=C(Cl)C1 [compound 5154] | 1.75 (≈ 0.664 µg/mL)
65 | O=C(Nc1nnc(-c2ccc3c(c2)CCC3)o1)N1CC=C(C(F)(F)F)CC1 [compound 5155] | 1.97 (≈ 0.745 µg/mL)
